Data published in the NIST ThermoML archive (doi:10.1016/j.tca.2013.09.032).

Assay: molar heat capacity at constant pressure
Settings: 101.33 kPa, Crystal, Vacuum adiabatic calorimetry

Cc1cc2nc3c(=O)[nH]c(=O)nc-3n(C[C@H](O)[C@H](O)[C@H](O)CO)c2cc1C [riboflavin]
Settings | molar heat capacity at constant pressure [J/K/mol]
1 K | 0.0523
2 K | 0.209
3 K | 0.47
4 K | 0.836
5 K | 1.31
6 K | 1.88
6.75 K | 2.55
7 K | 2.65
7.32 K | 2.83
8 K | 3.25
8.41 K | 3.45
8.94 K | 4.08
9 K | 4.08
9.34 K | 4.48
9.68 K | 4.81
10 K | 5.1
10.15 K | 5.25
10.36 K | 5.42
10.98 K | 6.23
11.56 K | 7.05
11.98 K | 7.68
13.16 K | 9.25
15 K | 12
15.03 K | 12.22
16.92 K | 15.24
18.77 K | 18.25
20 K | 20.35
20.65 K | 21.38
22.79 K | 25.35
24.95 K | 29.29
25 K | 29.5
27.13 K | 33.81
29.37 K | 38.36
30 K | 39.49
31.61 K | 42.49
33.91 K | 47.31
35 K | 49.35
36.25 K | 51.78
38.52 K | 56.45
40 K | 59.26
40.96 K | 60.98
43.38 K | 65.91
45 K | 68.91
45.72 K | 70.28
48.12 K | 74.84
50 K | 78.34
50.55 K | 79.52
52.99 K | 83.98
55.45 K | 88.71
57.93 K | 93.42
60 K | 97.31
60.48 K | 98.18
62.91 K | 102.6
65.4 K | 106.9
67.89 K | 110.9
70 K | 114.4
70.37 K | 115.1
72.85 K | 119.2
75.32 K | 123.3
77.79 K | 128.2
80 K | 132
80.34 K | 132.4
82.75 K | 137.1
83.48 K | 138.3
85.22 K | 141.4
86.72 K | 144.2
88.86 K | 147.9
89.48 K | 148.9
90 K | 149.6
92.71 K | 153.8
95.7 K | 158.4
98.7 K | 162.9
100 K | 165.2
101.67 K | 167.8
104.65 K | 172.4
107.64 K | 177.1
110 K | 180.4
110.63 K | 181.6
113.62 K | 185.8
116.63 K | 190.1
119.63 K | 194.3
120 K | 195
122.64 K | 198.5
125.66 K | 202.7
128.69 K | 207.3
130 K | 209.2
131.7 K | 211.6
134.72 K | 215.9
137.75 K | 220.3
140 K | 223.3
140.77 K | 224.6
143.8 K | 229
146.83 K | 233
149.86 K | 237.2
150 K | 237.5
152.9 K | 241.7
155.94 K | 246
158.98 K | 250.1
160 K | 251.7
162.02 K | 254.2
165.06 K | 258.6
168.1 K | 263
170 K | 265.7
171.14 K | 267.3
174.19 K | 271.6
177.26 K | 276
180 K | 279.4
180.3 K | 279.9
183.34 K | 283.9
186.38 K | 288.1
189.42 K | 291.9
190 K | 293
192.46 K | 296.2
195.5 K | 300.5
198.54 K | 305
200 K | 306.7
201.58 K | 308.7
204.61 K | 313
207.64 K | 317.5
210 K | 320.5
210.68 K | 321.4
213.72 K | 325.8
216.77 K | 330
219.81 K | 334
220 K | 334.7
222.86 K | 338.3
225.93 K | 342.3
228.98 K | 346.6
230 K | 348.2
232.02 K | 350.4
235.06 K | 355
238.11 K | 359.4
240 K | 361.5
241.15 K | 363.5
244.2 K | 367.7
247.25 K | 371.5
250 K | 375.1
250.29 K | 375.6
253.34 K | 379.8
256.38 K | 383.9
259.42 K | 388.4
260 K | 389.1
262.46 K | 392.5
265.5 K | 396.6
268.54 K | 400.6
270 K | 403
271.58 K | 404.8
273.15 K | 407.4
274.65 K | 409.2
277.69 K | 413.5
280 K | 416.6
280.72 K | 417.4
283.75 K | 421.5
286.78 K | 425.5
289.8 K | 429.8
290 K | 429.9
292.82 K | 434
295.84 K | 438.2
298.15 K | 441.1
298.86 K | 442.2
302.37 K | 447.3
306.36 K | 453.1
310 K | 458.6
310.36 K | 459.1
314.34 K | 464.5
318.32 K | 470
320 K | 472.1
322 K | 474.1
322.29 K | 474.7
